The target of this test is T1, hOX2R (Homo sapiens, UniProt O43614).
T1 construct: expressed in transfected cells; host or cells: CHO cells (G418 selection)
T1 sequence (O43614 1-444): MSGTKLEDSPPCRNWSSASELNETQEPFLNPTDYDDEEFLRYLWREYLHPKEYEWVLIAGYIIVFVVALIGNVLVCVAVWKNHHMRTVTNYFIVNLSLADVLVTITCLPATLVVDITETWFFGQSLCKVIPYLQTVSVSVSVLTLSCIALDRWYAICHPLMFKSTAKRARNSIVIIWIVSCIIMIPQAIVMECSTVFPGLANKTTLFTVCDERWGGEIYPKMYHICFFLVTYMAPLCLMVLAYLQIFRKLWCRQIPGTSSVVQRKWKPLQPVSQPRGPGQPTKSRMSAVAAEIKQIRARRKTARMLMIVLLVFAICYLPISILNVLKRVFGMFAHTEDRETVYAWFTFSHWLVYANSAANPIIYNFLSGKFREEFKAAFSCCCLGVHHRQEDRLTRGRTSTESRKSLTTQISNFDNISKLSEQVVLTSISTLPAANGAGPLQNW
Description: hOX2R IPone assay (orexin receptor agonism). Particulars: IPone readout; for hOX2R_Ipone max %act: maximal activation; for EC50: orexin receptor agonist, read-out: hOX2R_IPone EC50. The test is classed as cell-based.

In general, EC50 refers to the concentration giving half of the maximal effect. For `CCN1C(=O)N[C@@H](CCC(F)(F)F)CCCCCOc2nc(cn3ccnc23)-c2cccc(n2)C1C` (stereo partly drawn) [Example 90, (16R)-13-ethyl-12-methyl-16-(3,3,3-trifluoropropyl)-12,13,16,17,18,19,20, 21-octahydro-6,23:11,7-di(azeno) imidazo[2,1-c][1,4, 13,15]oxatriazacyclo-henicosin-14(15H)-one], the hOX2R_Ipone max %act amounted to 100.8% and the EC50 came out at 101 nM.

As to `CCN1C(=O)NC(CCC(F)F)CCCCCOc2nc(cn3ncnc23)-c2cc(ncc2C)[C@H]1C` (stereo partly drawn) [Example 201, (3R,E)-7-(3,3-difluoropropyl)-4-ethyl-25,3-dimethyl-13-oxa-4,6-diaza-1(6,8)-[1,2,4]triazolo[1,5-a]pyrazina-2(4,2)-pyridina-cyclotridecaphan-5-one], the hOX2R_Ipone max %act is reported as 101% and the EC50 is 3.68 nM.

Consider `CCN1C(=O)NCCCCCCOc2nc(cn3ccnc23)-c2cc(ncc2OC)[C@H]1C` [Example 85, (12R)-13-ethyl-8-methoxy-12-methyl-12,13,16,17,18,19,20, 21-octahydro-6,23-(azeno)-11,7-(metheno)imidazo[2,1-c][1,4,10,13,15] oxatetraazacycloheni-cosin-14(15H)-one], for which the hOX2R_Ipone max %act is recorded as 100.5% and the EC50 was 5.1 nM.

Take `CCN1C(=O)N[C@H](C(F)(F)F)CCCCCOc2nc(cn3ccnc23)-c2cc(ncc2OC)[C@H]1C` [Example 115, (12R,16S)-13-ethyl-8-methoxy-12-methyl-16-(trifluoromethyl)-12,13,16,17,18,19,20,21-octahydro-6,23-(azeno)-11,7-(metheno)imidazo[2,1-c][1,4,10,13,15]oxatetraazacyclohenicosin-14(15H)-one]: the hOX2R_Ipone max %act was determined as 97.2% and the concentration giving a half-maximal response (EC50) is 868 nM.

Take `CCN1C(=O)N[C@@H](CCC(F)(F)F)CCCCCOc2nc(cn3ccnc23)-c2cc(nnc2OC)[C@H]1C` [Example 116, (12R,16R)-13-ethyl-8-methoxy-12-methyl-16-(3,3,3-trifluoropropyl)-12,13,16,17,18,19,20,21-octahydro-6,23-(azeno)-11,7-(metheno)imidazo[2,1-c][1,4,9,10,13,15]oxapentaazacyclohenicosin-14(15H)-one]: the hOX2R_Ipone max %act was found to be 99.7% and the 50% effective concentration (EC50) was 1.6 nM.

In the case of `CCN1C(=O)NC(CCCOC)CCCCCOc2nc(cn3ccnc23)-c2cc(ncc2OC)[C@H]1C` (single isomer, unassigned) [Example 60A], the hOX2R_Ipone max %act came out at 100.4% and the EC50 is 52.1 nM.

In the case of `CCN1C(=O)NC2CN(CCCCOc3nc(cn4ccnc34)-c3cc(ncc3OC)[C@H]1C)CC2C(F)(F)F` (single isomer, unassigned) [Example 214], the hOX2R_Ipone max %act is recorded as 102.9% and the concentration for a half-maximal effect (EC50) is 3.43 nM.

As to `CCN1C(=O)NC(CC2CC2(F)F)CCCCCOc2nc(cn3ccnc23)-c2cc(ncc2OC)[C@H]1C` (single isomer, unassigned) [Example 59B], the hOX2R_Ipone max %act is recorded as 100.1% and the EC50 amounted to 3.1 nM.

For `CCN1C(=O)N[C@@H](C(F)(F)F)CCCCCOc2nc(cn3ccnc23)-c2cc(ncc2OC)[C@H]1C` [Example 77, (12R,16R)-13-ethyl-8-methoxy-12-methyl-16-(trifluoromethyl)-12,13,16,17,18,19,20, 21-octahydro-6,23-(azeno)-11,7-(metheno)imidazo[2,1-c][1,4,10,13,15]oxatet-raazacyclohenicosin-14(15H)-one], the hOX2R_Ipone max %act is 101.7% and the EC50 stood at 20.9 nM.

As for `CCN1C(=O)N[C@@H](CCS(C)(=O)=O)CCCCCOc2nc(cn3ncnc23)-c2cc(ncc2OC)[C@H]1C` [Example 154, (3R,7R,E)-4-ethyl-25-methoxy-3-methyl-7-(2-(methylsulfonyl)ethyl)-13-oxa-4,6-diaza-1(6,8)-[1,2,4]triazolo[1,5-a]pyrazina-2(4,2)-pyridinacyclotridecaphan-5-one], the hOX2R_Ipone max %act is given as 106.1% and the EC50 came to 1.05 nM.

With `CCN1C(=O)N[C@@H](CCC(F)(F)F)CCCCCOc2nc(cn3ccnc23)C2=NC=C(O2)C1C` (single isomer, unassigned) [Example 104A], the hOX2R_Ipone max %act was determined as 60.9% and the EC50 was determined as 4910 nM.

Regarding `CCN1C(=O)N[C@@H](CCC(F)(F)F)CCCCCCc2nc(cn3ccnc23)-c2cc(ncc2OC)[C@H]1C` [Example 81, (12R,16R)-13-ethyl-8-methoxy-12-methyl-16-(3,3,3-trifluoropropyl)-12,13,15,16,17,18,19, 20,21,22-decahydro-14H-6,23-(azeno)-11,7-(metheno) imidazo[1,2-l][1,3,6,12]tetraazacy-clohenicosin-14-one], the hOX2R_Ipone max %act turned out to be 100.1% and the EC50 was 3.3 nM.

As for `CCN1C(=O)NC(COC)CCCCCOc2nc(cn3ccnc23)-c2cc(ncc2F)[C@H]1C` (stereo partly drawn) [Example 199, (3R,E)-4-ethyl-25-fluoro-7-(methoxymethyl)-3-methyl-13-oxa-4,6-diaza-1(6,8)-imidazo[1,2-a]pyrazina-2(4,2)-pyridinacyclotridecaphan-5-one], the hOX2R_Ipone max %act is listed as 100.6% and the EC50 was 4.25 nM.

With `CCN1C(=O)NC(CC(C)(F)F)CCCCCOc2nc(nn3ccnc23)-c2cc(ncc2OC)[C@H]1C` (stereo partly drawn) [Example 207, (3R,E)-7-(2,2-difluoropropyl)-4-ethyl-25-methoxy-3-methyl-13-oxa-4,6-diaza-1(2,4)-imidazo[2,1-f][1,2,4]triazina-2(4,2)-pyridinacyclo-tridecaphan-5-one], the hOX2R_Ipone max %act is 104.7% and the EC50 was 4.29 nM.

Regarding `CCN1C(=O)NC(CCC(F)(F)F)C(C)/C=C\COc2nc(cn3ccnc23)-c2cccc(c2)[C@H]1C` (single isomer, unassigned) [Example 41A], the hOX2R_Ipone max %act was 100.9% and the concentration giving a half-maximal response (EC50) came to 115 nM.

Take `CCN1C(=O)NC(C2CC2(F)F)CCCCCOc2nc(cn3ccnc23)-c2cc(ncc2OC)[C@H]1C` (stereo partly drawn) [Example 192, (3R,E)-7-(2,2-difluorocyclopropyl)-4-ethyl-25-methoxy-3-methyl-13-oxa-4,6-diaza-1(6,8)-imidazo[1,2-a]pyrazina-2(4,2)-pyridinacyclotri-decaphan-5-one]: the hOX2R_Ipone max %act is listed as 100.9% and the EC50 was 0.46 nM.

Regarding `CCN1C(=O)NC(CCC(F)(F)F)C(C)CCCOc2nc(cn3ccnc23)-c2cccc(c2)[C@H]1C` (single isomer, unassigned) [Example 42C], the hOX2R_Ipone max %act was found to be 99.7% and the EC50 is 8.6 nM.

Consider `CCN1C(=O)N[C@@H](CCC(F)(F)F)CCCCOCc2nc(cn3ccnc23)-c2cc(ncc2OC)[C@H]1C` [Example 144, (3R,7R,E)-4-ethyl-25-methoxy-3-methyl-7-(3,3,3-trifluoropropyl)-12-oxa-4,6-diaza-1(6,8)-imidazo[1,2-a]pyrazina-2(4,2)-pyridinacyclotridecaphan-5-one], for which the hOX2R_Ipone max %act stood at 101.4% and the EC50 stood at 6.09 nM.

Consider `CCN1C(=O)NC(CCC(F)(F)F)C(C)/C=C\COc2nc(cn3ccnc23)-c2cccc(c2)[C@H]1C` (single isomer, unassigned) [Example 41B], for which the hOX2R_Ipone max %act is given as 100.4% and the EC50 came to 21.3 nM.

On to `CCN1C(=O)NC(CC23CC(C2)C3)CCCCCOc2nc(nn3ccnc23)-c2cc(ncc2OC)[C@H]1C` (stereo partly drawn) [Example 203, (3R,E)-7-(bicyclo[1.1.1]pentan-1-ylmethyl)-4-ethyl-25-methoxy-3-methyl-13-oxa-4,6-diaza-1(2,4)-imidazo[2,1-f][1,2,4]triazina-2(4,2)-pyridinacyclotridecaphan-5-one], for which the hOX2R_Ipone max %act worked out at 100% and the EC50 amounted to 11.4 nM.

Take `CCN1C(=O)NC(c2cscn2)CCCCCOc2nc(cn3ccnc23)-c2cccc(c2)[C@H]1C` (single isomer, unassigned) [Example 19B]: the hOX2R_Ipone max %act came out at 94.4% and the EC50 came to 6.6 nM.

`CCN1C(=O)NC(CCC(F)(F)F)CCOCCOc2nc(cn3ccnc23)-c2cc(ncc2OC)[C@H]1C` (single isomer, unassigned) [Example 6A]: the hOX2R_Ipone max %act was found to be 103.5% and the EC50 is 11.9 nM.

As for `CCN1C(=O)N[C@@H](CCC(F)(F)F)CCCCOc2nc(cn3ccnc23)-c2cc(cnc2OC)[C@H]1C` [Example 27, (3R,7R,E)-4-ethyl-22-methoxy-3-methyl-7-(3,3,3-trifluoropropyl)-12-oxa-4,6-diaza-1(6,8)-imidazo[1,2-a]pyrazina-2(3,5)-pyridinacyclododecaphan-5-one], the hOX2R_Ipone max %act was found to be 101.1% and the EC50 came to 1.4 nM.

On to `CCN1C(=O)NCc2nc(no2)CCOc2nc(cn3ccnc23)-c2cccc(c2)[C@H]1C` [Example 23, (R,27E,64Z)-10-ethyl-11-methyl-3-oxa-8,10-diaza-6(3,5)-oxadiazola-2(6,8)-imidazo[1,2-a]pyrazina-1(1,3)-benzenacyclo-undecaphan-9-one], for which the hOX2R_Ipone max %act was 64.2% and the EC50 came out at 1010 nM.

For `CCN1C(=O)NC(C(C)(C)C)CCCCCOc2nc(cn3ccnc23)-c2cc(ncc2OC)[C@H]1C` (single isomer, unassigned) [Example 63A], the hOX2R_Ipone max %act came to 98.43% and the EC50 came out at 315 nM.

`CCN1C(=O)N[C@@H](CCC(F)(F)F)CCCCCOc2nc(cn3ccnc23)-c2cc(c(C)cn2)C1C` (single isomer, unassigned) [Example 92A]: the hOX2R_Ipone max %act is given as 67.1% and the concentration giving a half-maximal response (EC50) came out at 10100 nM.

(Values after patent US12686690B2, “Macrocyclic urea orexin receptor agonists” (Merck Sharp & Dohme LLC, priority 2020, dated 2026).)
